ChEMBL document CHEMBL4382286, “Nongenotoxic 3-Nitroimidazo[1,2-a]pyridines Are NTR1 Substrates That Display Potent in Vitro Antileishmanial Activity” (ACS Med Chem Lett, 2019)

How the values were obtained:
[1] = Toxicity in Swiss mouse assessed as effect on heart at 1 mg/kg, ip administered for 5 days measured measured on day 7 to day 30 post last dose by HES staining based microscopic analysis; assay type: organism-based; conditions: in vivo, 120 h
[2] = Mutagenicity in Salmonella typhimurium TA102 at 62.5 to 625 uM preincubated for 1 hr with S9 mix followed by addition of molten top agar and measured 48 hrs post dark incubation by Ames test; assay type: toxicity, subcellular; conditions: salmonella enterica subsp. enterica serovar typhimurium, s9, 48 h
Leishmania major [3] = experiment: Antileishmanial activity against intracellular amastigote stage of Leishmania major infected in human THP1 cells after 120 hrs by giemsa staining based microscopic analysis; assay type: functional, organism-based; conditions: THP-1, 120 h
[4] = Half life in CD-1 mouse hepatic microsomes in presence of NADPH by LC-MS/MS analysis; assay type: ADME, Microsome; conditions: liver microsomes
[5] = Drug metabolism in CD-1 mouse hepatic microsomes assessed as 6-chloro-8-(4-chlorophenylsulfinyl)-3-nitro-2-(phenylsulfonylmethyl)imidazo[1,2-a]pyridine formation in presence of NADPH by LC-MS/MS analysis; assay type: ADME, Liver, Microsome
[6] = Electrochemical behavior of the compound assessed as redox potential corrected toward normal hydrogen electrode by cyclic voltammetry
[7] = Toxicity in Swiss mouse assessed as effect on muscles at 1 mg/kg, ip administered for 5 days measured measured on day 7 to day 30 post last dose by HES staining based microscopic analysis; assay type: organism-based; conditions: in vivo, 120 h
HepG2 = experiment: Genotoxicity in human HepG2 cells at 1 to 20 uM after 2 to 72 hrs by comet assay; assay type: toxicity, cell-based; conditions: hepg2, 20 µM
Leishmania major [8] = experiment: Antileishmanial activity against promastigote stage of Leishmania major MHOM/IL/81/Friedlin after 72 hrs by MTT assay; assay type: functional, organism-based
[9] = Toxicity in Swiss mouse assessed as inflammation at injection site 10 mg/kg, ip administered for 5 days measured measured on day 7 to day 30 post last dose by HES staining based microscopic analysis; assay type: organism-based; conditions: in vivo, 120 h
[10] = Selectivity index, ratio of CC50 for human HepG2 cells to IC50 for promastigote stage of Leishmania donovani MHOM/IN/00/DEVI; assay type: toxicity; conditions: read-out: Ratio CC50/IC50
[11] = Mutagenicity in Salmonella typhimurium TA98 at 62.5 to 625 uM preincubated for 1 hr with S9 mix followed by addition of molten top agar and measured 48 hrs post dark incubation by Ames test; assay type: toxicity, subcellular; conditions: salmonella enterica subsp. enterica serovar typhimurium, s9, 48 h
Plasmodium falciparum = experiment: Antiplasmodial activity against chloroquine/proguanil/pyrimethamine-resistant synchronized stage of Plasmodium falciparum K1 after 72 hrs by SYBR green1 staining based spectrophotometric method; assay type: functional, organism-based; conditions: K1, 72 h
[12] = Substrate activity at NTR2 in promastigote stage of Leishmania donovani MHOM/SD/62/1S-CL2D assessed as inhibition of parasite growth after 72 hrs by resazurin dye based assay
Leishmania donovani [13] = experiment: Selectivity ratio of IC50 for NTR2 in promastigote stage of Leishmania donovani MHOM/SD/62/1S-CL2D to IC50 for NTR1 in promastigote stage of Leishmania donovani MHOM/SD/62/1S-CL2D
Leishmania donovani [14] = experiment: Antileishmanial activity against wild type promastigote stage of Leishmania donovani MHOM/SD/62/1S-CL2D after 72 hrs by resazurin dye based fluorescence assay; assay type: functional, organism-based
[15] = Cytotoxicity against human HepG2 cells after 72 hrs by MTT assay; assay type: cell-based
[16] = Toxicity in Swiss mouse assessed as effect on spleen at 1 mg/kg, ip administered for 5 days measured measured on day 7 to day 30 post last dose by HES staining based microscopic analysis; assay type: organism-based; conditions: in vivo, 120 h
Leishmania donovani [17] = experiment: Antileishmanial activity against intracellular amastigote stage of Leishmania donovani infected in human THP1 cells after 120 hrs by giemsa staining based microscopic analysis; assay type: functional, organism-based; conditions: THP-1, 120 h
[18] = Mutagenicity in Salmonella typhimurium TA100 at 62.5 to 625 uM preincubated for 1 hr with S9 mix followed by addition of molten top agar and measured 48 hrs post dark incubation by Ames test; assay type: toxicity, subcellular; conditions: salmonella enterica subsp. enterica serovar typhimurium, s9, 48 h
[19] = Toxicity in Swiss mouse assessed as effect on kidney at 1 mg/kg, ip administered for 5 days measured measured on day 7 to day 30 post last dose by HES staining based microscopic analysis; assay type: organism-based; conditions: in vivo, 120 h
Leishmania infantum [20] = experiment: Potency index, ratio of fexinidazole IC50 to test compound IC50 for Leishmania infantum axenic amastigotes; assay type: functional
[21] = system: Trypanosoma brucei brucei; experiment: Antitrypanosomal activity against trypomastigote stage of Trypanosoma brucei brucei AnTat 1.9 assessed as decrease in parasite viability after 69 hrs by Alamar Blue assay; assay type: functional, organism-based; conditions: AnTat 1.9, 69 h
[22] = Substrate activity at NTR1 in promastigote stage of Leishmania donovani MHOM/SD/62/1S-CL2D assessed as inhibition of parasite growth after 72 hrs by resazurin dye based assay
Trypanosoma cruzi = experiment: Antitrypanosomal activity against Trypanosoma cruzi MHOM/BR/78/Silvio cloneX10/7A epimastigotes measured after 4 days by resazurin dye based fluorescence assay; assay type: functional, organism-based; conditions: 96 h
[23] = Toxicity in Swiss mouse assessed as effect on liver by measuring inflammatory cell infiltration at 10 mg/kg, ip administered for 5 days measured measured on day 7 to day 30 post last dose by HES staining based microscopic analysis; assay type: organism-based; conditions: in vivo, 120 h
Leishmania donovani [24] = experiment: Antileishmanial activity against promastigote stage of Leishmania donovani MHOM/IN/00/DEVI after 72 hrs by MTT assay; assay type: functional, organism-based
[25] = Mutagenicity in Salmonella typhimurium TA98 at 62.5 to 625 uM preincubated for 1 hr followed by addition of molten top agar and measured 48 hrs post dark incubation by Ames test; assay type: toxicity; conditions: salmonella enterica subsp. enterica serovar typhimurium
Leishmania donovani [26] = experiment: Potency index, ratio of miltefosine IC50 to test compound IC50 for intracellular amastigote stage of Leishmania donovani infected in human THP1 cells; assay type: functional
[27] = Cytotoxicity against human THP1 cells after 72 hrs by MTT assay; assay type: cell-based; conditions: THP-1 cells
[28] = Mutagenicity in Salmonella typhimurium TA100 at 62.5 to 625 uM preincubated for 1 hr followed by addition of molten top agar and measured 48 hrs post dark incubation by Ames test; assay type: toxicity; conditions: salmonella enterica subsp. enterica serovar typhimurium
Leishmania infantum [29] = experiment: Antileishmanial activity against Leishmania infantum axenic amastigotes after 48 hrs by steady-glo luciferase reporter gene assay; assay type: functional, organism-based
[30] = Solubility of the compound in RPMI medium at 4 to 6 uM; assay type: physicochemical
[31] = Lipophilicity, log D of the compound at pH 7.4 by HPLC analysis; assay type: physicochemical; conditions: buffer
[32] = Toxicity in Swiss mouse assessed as effect on lungs at 1 mg/kg, ip administered for 5 days measured measured on day 7 to day 30 post last dose by HES staining based microscopic analysis; assay type: organism-based; conditions: in vivo, 120 h
Albumin [33] = target: T1, Albumin (Homo sapiens, UniProt P02768); experiment: Binding affinity to human serum albumin after 4 hrs by LC-MS analysis; assay type: ADME; conditions: read-out: PB (converted)
[34] = Toxicity in Swiss mouse assessed as effect on brain at 1 mg/kg, ip administered for 5 days measured measured on day 7 to day 30 post last dose by HES staining based microscopic analysis; assay type: organism-based; conditions: in vivo, 120 h
Leishmania donovani [35] = experiment: Selectivity ratio of IC50 for wild type promastigote stage of Leishmania donovani MHOM/SD/62/1S-CL2D to IC50 for NTR1 in promastigote stage of Leishmania donovani MHOM/SD/62/1S-CL2D
[36] = Toxicity in Swiss mouse assessed as effect on liver at 1 mg/kg, ip administered for 5 days measured measured on day 7 to day 30 post last dose by HES staining based microscopic analysis; assay type: organism-based; conditions: in vivo, 120 h
[37] = Mutagenicity in Salmonella typhimurium TA97a at 62.5 to 625 uM preincubated for 1 hr with S9 mix followed by addition of molten top agar and measured 48 hrs post dark incubation by Ames test; assay type: toxicity, subcellular; conditions: salmonella enterica subsp. enterica serovar typhimurium, s9, 48 h
Albumin [38] = target: T1, Albumin; experiment: Binding affinity to human serum albumin assessed as unbound fraction after 4 hrs by LC-MS analysis; assay type: ADME; conditions: isolated protein
[39] = Toxicity in Swiss mouse assessed as fibrosis at injection site 10 mg/kg, ip administered for 5 days measured measured on day 7 to day 30 post last dose by HES staining based microscopic analysis; assay type: organism-based; conditions: in vivo, 120 h
[40] = Toxicity in Swiss mouse assessed as effect on skin by measuring hypodermic lymph node at 10 mg/kg, ip administered for 5 days measured measured on day 7 to day 30 post last dose by HES staining based microscopic analysis; assay type: organism-based; conditions: in vivo, 120 h
[41] = Mutagenicity in Salmonella typhimurium TA97a at 62.5 to 625 uM preincubated for 1 hr followed by addition of molten top agar and measured 48 hrs post dark incubation by Ames test; assay type: toxicity; conditions: salmonella enterica subsp. enterica serovar typhimurium
[42] = Toxicity in Swiss mouse assessed as effect on adipose tissue at 1 mg/kg, ip administered for 5 days measured measured on day 7 to day 30 post last dose by HES staining based microscopic analysis; assay type: organism-based; conditions: in vivo, 120 h
[43] = Mutagenicity in Salmonella typhimurium TA102 at 62.5 to 625 uM preincubated for 1 hr followed by addition of molten top agar and measured 48 hrs post dark incubation by Ames test; assay type: toxicity; conditions: salmonella enterica subsp. enterica serovar typhimurium
[44] = Acute toxicity in Swiss mouse at 1 to 10 mg/kg, ip measured for 24 hrs; assay type: organism-based; conditions: in vivo
[45] = Solubility of the compound in RPMI medium at >62.5 uM; assay type: physicochemical
Trichomonas vaginalis = experiment: Antiprotozoal activity against Trichomonas vaginalis TVR87 measured after 48 hrs by trypan blue assay; assay type: functional, organism-based

T1 sequence (P02768 whole entry): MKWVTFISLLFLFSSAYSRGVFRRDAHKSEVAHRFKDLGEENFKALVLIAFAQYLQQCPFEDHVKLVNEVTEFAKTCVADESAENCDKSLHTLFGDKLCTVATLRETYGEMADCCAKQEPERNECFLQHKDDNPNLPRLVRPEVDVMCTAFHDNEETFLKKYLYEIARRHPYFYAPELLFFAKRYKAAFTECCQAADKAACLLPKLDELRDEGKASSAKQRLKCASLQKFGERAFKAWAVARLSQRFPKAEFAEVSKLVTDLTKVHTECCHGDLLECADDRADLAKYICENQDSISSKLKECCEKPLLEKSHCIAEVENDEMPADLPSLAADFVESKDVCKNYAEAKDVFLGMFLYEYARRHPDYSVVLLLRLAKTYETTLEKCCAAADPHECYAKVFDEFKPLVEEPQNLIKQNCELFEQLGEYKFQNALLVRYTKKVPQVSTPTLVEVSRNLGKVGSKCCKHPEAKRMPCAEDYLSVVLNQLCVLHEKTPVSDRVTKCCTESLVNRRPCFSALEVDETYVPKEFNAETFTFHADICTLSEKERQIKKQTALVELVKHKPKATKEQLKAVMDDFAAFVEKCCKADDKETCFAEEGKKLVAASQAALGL

Structure (SMILES): O=[N+]([O-])c1c(CS(=O)(=O)c2ccccc2)nc2c(Sc3ccc(Cl)cc3)cc(Cl)cn12
- Activity [1]: Non-Toxic
- Activity [2]: Non-Toxic
- IC50 (Leishmania major [3]): 2100 nM
- half-life [4]: 3 min
- Drug metabolism [5]: Metabolite_Detected
- Activity [6]: -0.63 V
- Activity [7]: Non-Toxic
- Activity (HepG2): Non-Toxic
- IC50 (Leishmania major [8]): 1300 nM
- Activity [9]: Non-Toxic
- selectivity ratio [10]: > 100
- Activity [11]: Non-Toxic
- IC50 (Plasmodium falciparum): 19000 nM
- IC50 [12]: 300 nM
- Ratio IC50 (Leishmania donovani [13]): 8
- IC50 (Leishmania donovani [14]): 260 nM
- CC50 at 72 h [15]: > 100000 nM
- Activity [16]: Non-Toxic
- IC50 (Leishmania donovani [17]): 1000 to 1300 nM
- Activity [18]: Non-Toxic
- Activity [19]: Non-Toxic
- Ratio IC50 (Leishmania infantum [20]): 2
- IC50 [21]: 1300 nM
- IC50 [22]: 33 nM
- IC50 (Trypanosoma cruzi): 2200 nM
- Activity [23]: Non-Toxic
- IC50 (Leishmania donovani [24]): 1000 nM
- Activity [25]: Non-Toxic
- Ratio IC50 (Leishmania donovani [26]): 3
- CC50 at 72 h [27]: > 62500 nM
- Activity [28]: Non-Toxic
- IC50 (Leishmania infantum [29]): 1700 nM
- solubility [30]: Soluble
- logD [31]: 4.26
- Activity [32]: Non-Toxic
- fraction unbound at 4 h (Albumin [33]): 0.0005
- Activity [34]: Non-Toxic
- Ratio IC50 (Leishmania donovani [35]): 8
- Activity [36]: Non-Toxic
- Activity [37]: Non-Toxic
- logFu (Albumin [38]): -3.28
- Activity [39]: Non-Toxic
- Activity [40]: Non-Toxic
- Activity [41]: Non-Toxic
- Activity [42]: Non-Toxic
- Activity [43]: Non-Toxic
- Activity [44]: Non-Toxic
- solubility [45]: Insoluble
- IC50 (Trichomonas vaginalis): 4600 to 5000 nM
